Source: ChEMBL document CHEMBL5143545, “Indolylarylsulfones bearing phenylboronic acid and phenylboronate ester functionalities as potent HIV‑1 non-nucleoside reverse transcriptase inhibitors” (Bioorg Med Chem, 2022)
Converted amounts (≈) assume the structure as drawn.

How the values were obtained:
[1] = test system: Human immunodeficiency virus 1; test: Antiviral activity against HIV1 with RT RES056 mutant infected in human MT4 cells assessed as protection against viral-induced cytopathogenecity by MTT assay; assay type: functional, organism-based; conditions: Human immunodeficiency virus 1, MT4
[2] = test system: Human immunodeficiency virus 1; test: Antiviral activity against HIV1 with RT L100I mutant infected in human MT4 cells assessed as protection against viral-induced cytopathogenecity by MTT assay; assay type: functional, organism-based; conditions: Human immunodeficiency virus 1, MT4
[3] = test system: Human immunodeficiency virus 1; assay type: functional, organism-based; conditions: Human immunodeficiency virus 1, MT4
[4] = test system: Human immunodeficiency virus 1; assay type: functional, organism-based; conditions: Human immunodeficiency virus 1, MT4; remark: listed apart in the source
in vitro = conditions: human, MT4 cells, mock-infected (CC50) and HIV1 3B infected (EC50)
Description: Selectivity index, ratio of CC50 for toxicity in mock-infected human MT4 cells assessed as reduction in cell viability by MTT assay to EC50 for antiviral activity against HIV1 3B infected in human MT4 cells assessed as protection against viral-induced cytopathogenecity by MTT assay

[5] = test system: Human immunodeficiency virus 1; test: Antiviral activity against HIV1 with RT K103N mutant infected in human MT4 cells assessed as protection against viral-induced cytopathogenecity by MTT assay; assay type: functional, organism-based; conditions: Human immunodeficiency virus 1, MT4
[6] = test system: Human immunodeficiency virus 1; test: microbe, parasite or virus in culture; conditions: Human immunodeficiency virus 1, 3B, MT4
Description: Antiviral activity against HIV1 3B infected in human MT4 cells assessed as protection against viral-induced cytopathogenecity by MTT assay

[7] = test system: Human immunodeficiency virus 1; test: Antiviral activity against HIV1 with RT E138K mutant infected in human MT4 cells assessed as protection against viral-induced cytopathogenecity by MTT assay; assay type: functional, organism-based; conditions: Human immunodeficiency virus 1, MT4
[8] = test system: Human immunodeficiency virus 1; assay type: functional, organism-based; conditions: Human immunodeficiency virus 1, MT4; remark: listed apart in the source
[9] = Toxicity in mock-infected human MT4 cells assessed as reduction in cell viability by MTT assay; assay type: cell-based
[10] = Solubility in water at pH 7.4; assay type: physicochemical
[11] = Solubility in water at pH 2; assay type: physicochemical
[12] = target: Human immunodeficiency virus type 1 reverse transcriptase (Human immunodeficiency virus 1, UniProt Q72547); test: Inhibition of HIV1 reverse transcriptase assessed as inhibition of biotin-dUTP incorporation
[13] = Solubility in water at pH 7; assay type: physicochemical

Structure (SMILES)	EC50 [1]	EC50 [2]	EC50 [3]	EC50 [4]	selectivity ratio (in vitro)	EC50 [5]	EC50 [6]	EC50 [7]	EC50 [8]	CC50 [9]	solubility [10]	solubility [11]	IC50 [12]	solubility [13]
Cc1cc(C)cc(S(=O)(=O)c2c(C(=O)NCCCNC(=O)c3ccc(B(O)O)cc3)[nH]c3ccc(Cl)cc23)c1	4.91 µM	0.021 µM	0.118 µM	0.19 µM	2240	0.033 µM	0.0111 µM	0.0342 µM	2.23 µM	24.7 µM	–	–	–	–
Cc1cc(C)cc(S(=O)(=O)c2c(C(=O)Nc3ccc(B(O)O)cc3)[nH]c3ccc(Cl)cc23)c1	> 856 µM	0.037 µM	0.0795 µM	0.215 µM	712	0.041 µM	0.012 µM	0.0398 µM	> 1.62 µM	8.55 µM	–	–	–	–
Cc1cc(C)cc(S(=O)(=O)c2c(C(=O)NCCCNC(=O)c3cccc(B(O)O)c3)[nH]c3ccc(Cl)cc23)c1	5.4 µM	0.11 µM	0.22 µM	0.27 µM	684	0.13 µM	0.0354 µM	0.0844 µM	1.82 µM	24.2 µM	–	–	–	–
Cc1cc(C)cc(S(=O)(=O)c2c(C(=O)NC3CCN(Cc4ccc(B(O)O)cc4)CC3)[nH]c3ccc(Cl)cc23)c1	> 19.3 µM	0.11 µM	1.31 µM	1.07 µM	615	0.31 µM	0.0314 µM	0.646 µM	> 19.3 µM	19.3 µM	–	–	–	–
Cc1cc(C)cc(S(=O)(=O)c2c(C(=O)NCc3ccc(B4OC(C)(C)C(C)(C)O4)cc3)[nH]c3ccc(Cl)cc23)c1	4.04 µM	0.014 µM	0.091 µM	0.0699 µM	3550	0.035 µM	0.0067 µM	0.045 µM	2.59 µM	23.9 µM	37.7 µg/mL (≈ 65.1 µM)	73 µg/mL (≈ 126 µM)	0.119 µM	35.8 µg/mL (≈ 61.8 µM)
Cc1cc(C)cc(S(=O)(=O)c2c(C(=O)NCc3cccc(B(O)O)c3)[nH]c3ccc(Cl)cc23)c1	1.51 µM	0.0073 µM	0.021 µM	0.06 µM	3310	0.0092 µM	0.0085 µM	0.0503 µM	0.89 µM	28 µM	94.5 µg/mL (≈ 190 µM)	64 µg/mL (≈ 129 µM)	0.123 µM	70 µg/mL (≈ 141 µM)
Cc1cc(C)cc(S(=O)(=O)c2c(C(=O)NCCNC(=O)c3cccc(B(O)O)c3)[nH]c3ccc(Cl)cc23)c1	> 21.1 µM	0.26 µM	0.98 µM	1.34 µM	517	0.57 µM	0.0408 µM	0.243 µM	8.1 µM	21.1 µM	–	–	–	–
Cc1cc(C)cc(S(=O)(=O)c2c(C(=O)Nc3ccc4c(c3)B(O)OC4)[nH]c3ccc(Cl)cc23)c1	> 8.41 µM	0.096 µM	0.19 µM	0.47 µM	457	0.11 µM	0.0184 µM	0.0649 µM	> 1.96 µM	8.42 µM	–	–	–	–
Cc1cc(C)cc(S(=O)(=O)c2c(C(=O)NCCNC(=O)c3ccc(B(O)O)cc3)[nH]c3ccc(Cl)cc23)c1	> 24.3 µM	0.23 µM	0.7 µM	0.91 µM	1230	0.26 µM	0.0198 µM	0.162 µM	6.76 µM	24.4 µM	–	–	–	–
Cc1cc(C)cc(S(=O)(=O)c2c(C(=O)Nc3cccc(B(O)O)c3)[nH]c3ccc(Cl)cc23)c1	> 5.3 µM	0.0875 µM	0.2 µM	0.85 µM	282	0.1 µM	0.0189 µM	0.0676 µM	> 5.3 µM	5.31 µM	–	–	–	–
Cc1cc(C)cc(S(=O)(=O)c2c(C(=O)NC3CCN(Cc4cccc(B(O)O)c4)CC3)[nH]c3ccc(Cl)cc23)c1	> 6.43 µM	0.28 µM	> 1.19 µM	1.19 µM	151	0.51 µM	0.0426 µM	0.717 µM	> 6.43 µM	6.43 µM	–	–	–	–
Cc1cc(C)cc(S(=O)(=O)c2c(C(=O)NCc3ccc(B(O)O)cc3)[nH]c3ccc(Cl)cc23)c1	4.64 µM	0.0094 µM	0.115 µM	0.12 µM	3140	0.032 µM	0.0088 µM	0.0537 µM	3.86 µM	27.7 µM	–	–	–	–
Cc1cc(C)cc(S(=O)(=O)c2c(C(N)=O)[nH]c3ccc(Cl)cc23)c1	> 7.08 µM	0.01 µM	0.08 µM	0.03 µM	2570	0.02 µM	0.0028 µM	0.01 µM	1.17 µM	7.08 µM	29 µg/mL (≈ 79.9 µM)	71.2 µg/mL (≈ 196 µM)	0.0048 µM	58.3 µg/mL (≈ 161 µM)
O=C1Nc2ccc(Cl)cc2[C@@](C#CC2CC2)(C(F)(F)F)O1 [EFAVIRENZ]	0.33 µM	–	–	0.0063 µM	–	–	–	0.0066 µM	0.21 µM	> 6.34 µM	–	–	–	–
Cc1cc(C#N)cc(C)c1Oc1nc(Nc2ccc(C#N)cc2)nc(N)c1Br [ETRAVIRINE]	0.066 µM	0.0076 µM	0.02 µM	–	–	–	0.0029 µM	0.019 µM	–	> 4.59 µM	< 1 µg/mL	< 3 µg/mL	–	< 2 µg/mL
Nc1ccn([C@@H]2CS[C@H](CO)O2)c(=O)n1 [LAMIVUDINE]	5.06 µM	1.15 µM	2.17 µM	3.4 µM	> 309	2.79 µM	5.23 µM	8.27 µM	4.56 µM	> 87.2 µM	–	–	–	–
Cc1ccnc2c1NC(=O)c1cccnc1N2C1CC1 [NEVIRAPINE]	> 1500 µM	–	> 1500 µM	11 µM	–	–	0.16 µM	–	> 1500 µM	> 15 µM	–	–	–	–
Cc1cn([C@H]2C[C@H](N=[N+]=[N-])[C@@H](CO)O2)c(=O)[nH]c1=O [ZIDOVUDINE]	–	0.0093 µM	0.0097 µM	0.015 µM	> 352	0.022 µM	0.0212 µM	0.0347 µM	0.012 µM	> 7.48 µM	–	–	–	–
